Experimental data taken from PubChem BioAssay AID489035 (Sanford-Burnham Center for Chemical Genomics, 2010).
The source made the active and inactive calls. How the calls were made is not given here.

system: Jurkat NF-kB reporter, TCR-induced, luciferase luminescence; experiment: T-cell NF-kB luciferase reporter inhibition – Jurkat cells, luminescence, dose response (AID 489035)

Q: For `CCCC1=Nc2cc(C(=O)NCCCOCC)ccc2Sc2ccccc21`, which IC50 is on record?
A: Its IC50 is 24 µM (inactive).

Q: `COc1cc(/C=C/[N+](=O)[O-])ccc1OCc1cccc(C(=O)O)c1` was tested. Which IC50 did it give?
A: The IC50 was 0.55 µM.

Q: How did the IC50 turn out when `COc1ccccc1N1CCN(C(=O)c2ccc(-c3ccc(Cl)cc3)o2)CC1` was run?
A: Its IC50 is 34.6 µM (inactive).

Q: How did the IC50 turn out when `CC1=CC(C)(C)N(S(=O)(=O)c2ccc(C)cc2)c2cc(C)ccc21` was run?
A: Its IC50 is 6.77 µM.

Q: For `CC[C@]1(O)CC2CN(CCc3c([nH]c4ccccc34)[C@@](C(=O)OC)(c3cc4c(cc3OC)N(C=O)[C@H]3[C@@](O)(C(=O)OC)[C@H](OC(C)=O)[C@]5(CC)C=CCN6CC[C@]43[C@@H]65)C2)C1` (stereo not given in full), which IC50 is on record?
A: The IC50 was > 80 µM (inactive).

Q: `COc1cc(/C=C/c2ccc3cccc(O)c3n2)cc(OC)c1OC` was tested. Which IC50 did it give?
A: Its IC50 is 1.59 µM.

Q: Which IC50 does the source give for `CC(C)c1oc(=O)cc2c1[C@@H](O)[C@H]1OC(=O)[C@@]3(C)CC[C@@H](O)[C@@]2(C)C13` (stereo not given in full) here?
A: The IC50 was 2.54 µM.

Q: With `CC(=O)O[C@@]12CO[C@@H]1C[C@H](O)[C@@]1(C)C(=O)[C@H](O)C3=C(C)[C@@H](OC(=O)[C@H](O)[C@@H](NC(=O)c4ccccc4)c4ccccc4)C[C@@](O)([C@@H](OC(=O)c4ccccc4)C12)C3(C)C` (stereo not given in full) as the molecule, how does the IC50 read?
A: Its IC50 is 39.4 µM (inactive).

Q: Which IC50 does the source give for `Cc1cc(NC(=O)CSc2nc3c(sc4ccccc43)c(=O)n2CCCN2CCOCC2)n[nH]1` here?
A: The IC50 was > 80 µM (inactive).

Q: How did the IC50 turn out when `CC(C)Oc1ccccc1C1CC(=O)Nc2cc3c(cc21)OCCO3` (stereo not given) was run?
A: Its IC50 is > 80 µM (inactive).

Q: `CCOCCOC(=O)c1[nH]c2c(c1C)C(=O)CC(c1cccs1)C2` (stereo not given) was tested. Which IC50 did it give?
A: Its IC50 is > 80 µM (inactive).

Q: How did the IC50 turn out when `CCc1cc2c(=O)nc3n(c2s1)Cc1ccccc1/C3=C(/O)c1cccc([N+](=O)[O-])c1` was run?
A: The IC50 was > 80 µM (inactive).

Q: With `O=[N+]([O-])c1ccc(O)c(/C=N/Nc2ccc(Cl)nn2)c1` as the molecule, how does the IC50 read?
A: The IC50 was 54 µM (inactive).

Q: How did the IC50 turn out when `O=C(Nc1ccc(N2CCCCC2)cc1)c1ccccn1` was run?
A: Its IC50 is 0.46 µM.

Q: For `CCCCCCCCCCn1c2c(c(=N)c3c1CCC3)CCC2`, which IC50 is on record?
A: Its IC50 is 5.17 µM.

Q: Which IC50 does the source give for `COC(=O)CCC(=O)NC(=S)Nc1sc(C)c(C)c1C(N)=O` here?
A: The IC50 was > 80 µM (inactive).

Q: For `O=C1c2cccc3cc([N+](=O)[O-])cc(c23)C(=O)N1CCN1CCCC1`, which IC50 is on record?
A: Its IC50 is > 80 µM (inactive).

Q: For `CCCOC(=O)c1[nH]c2c(c1C)C(=O)CC(c1cccs1)C2` (stereo not given), which IC50 is on record?
A: The IC50 was 32.1 µM (inactive).

Q: With `Cc1ccc(NC(=O)Nc2ccnc(-c3cccnc3)n2)cc1` as the molecule, how does the IC50 read?
A: The IC50 was 0.84 µM.

Q: With `COc1ccc([C@H]2CC(=O)C=C(c3ccc(OC)cc3OC)C2)cc1` as the molecule, how does the IC50 read?
A: The IC50 was > 80 µM (inactive).

Q: Which IC50 does the source give for `COc1ccc(CCN2C(=O)C3C4C=CC(C3C2=O)C2C(=O)N(CCc3ccc(OC)c(OC)c3)C(=O)C42)cc1OC` (stereo not given) here?
A: The IC50 was > 80 µM (inactive).

Q: For `COc1ccc(Cn2c(SCc3ccc(C)cc3)nc3cc(OC)c(OC)cc3c2=N)cc1Cl`, which IC50 is on record?
A: The IC50 was 3.51 µM.

Q: How did the IC50 turn out when `C=CCSc1nc2ccccc2n1C(=O)/C=C/c1cc(OC)c(OC)c(OC)c1` was run?
A: The IC50 was 1.79 µM.

Q: How did the IC50 turn out when `CCCCCOC(=O)c1[nH]c2c(c1C)C(=O)CC(c1ccco1)C2` (stereo not given) was run?
A: The IC50 was > 80 µM (inactive).

Q: How did the IC50 turn out when `O=C(Nc1ccc(Cl)c(S(=O)(=O)N2CCOCC2)c1)c1ccc(OCC2CCCO2)cc1` (stereo not given) was run?
A: The IC50 was 18.3 µM.

Q: `CSc1nccc(-c2nn(-c3ccc(C)cc3)ccc2=O)n1` was tested. Which IC50 did it give?
A: Its IC50 is 33.3 µM (inactive).

Q: How did the IC50 turn out when `CCOc1ccc2c(c1)sc(N)[n+]2Cc1cc(C)cc2cccnc12` was run?
A: The IC50 was 7.8 µM.

Q: Which IC50 does the source give for `Cn1cc(C(=O)N/N=C/c2c(O)ccc3ccccc23)ccc1=O` here?
A: Its IC50 is 1.89 µM.

Q: `O=C(CNC(=O)c1ccco1)N=Nc1c(O)n(CCc2ccccc2)c2ccccc12` was tested. Which IC50 did it give?
A: The IC50 was > 80 µM (inactive).

Q: With `COc1cc2c(c(OC)c1OC)-c1ccc(O)cc1[C@@H](NC(C)=O)CC2` as the molecule, how does the IC50 read?
A: The IC50 was > 80 µM (inactive).

Q: With `O=C(NCCc1ccccc1)c1ccc2c(c1)OCCO2` as the molecule, how does the IC50 read?
A: The IC50 was 1.64 µM.

Q: For `CC(C)(C)c1ccc(C(=O)O/N=C(\N)c2ccccc2)cc1`, which IC50 is on record?
A: The IC50 was 2.31 µM.

Q: For `CC/C=C/CC(=O)N[C@@H](c1ccccc1)[C@@H](O)C(=O)O[C@H]1C[C@@]2(O)[C@@H](OC(=O)c3ccccc3)C3[C@](C)(C(=O)[C@H](OC(C)=O)C(=C1C)C2(C)C)[C@@H](O)C[C@H]1OC[C@@]31OC(C)=O` (stereo not given in full), which IC50 is on record?
A: Its IC50 is > 80 µM (inactive).

Q: For `O=C(Nc1ccc(F)cc1)c1ccc(CN2CCc3ccccc3C2)cc1`, which IC50 is on record?
A: Its IC50 is > 80 µM (inactive).

Q: Which IC50 does the source give for `CCOc1ccc(N(CC(=O)Nc2ccccc2C)S(=O)(=O)c2c(C)noc2C)cc1` here?
A: The IC50 was > 80 µM (inactive).
